Reference: patent US9113629B2, “4-amino-6-(4-substituted-phenyl)-picolinates and 6-amino-2-(4-substituted-phenyl)-pyrimidine-4-carboxylates and their use as herbicides” (DOW AGROSCIENCES LLC, priority 2013, dated 2015)
Like-named read-outs stand apart in the source and are kept apart here.

Tests used:
[1] = test system: Key Broadleaf Weed and Crop Species; assay: Post-emergent Test II herbicidal activity (Table 5); type: in vivo; conditions: post-emergence, 336 h, post-emergent, 14 days after application; for pest or weed control at 70 g/ha: 70 g ai/ha; for pest or weed control at 140 g/ha: 140 g ai/ha
How it was run: (§1)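 Scoring: visual, 0–100% injury at 14 d versus untreated. Treatment: overhead track spray, 187 L/ha, onto plants at the first–second true leaf stage. Growth: greenhouse, ~15 h light, 23–29 °C day, 22–28 °C night.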

[2] = test system: Key Grass and Sedge Weeds as well as Grass Crops; assay: Post-emergent Test II herbicidal activity (Table 6); type: in vivo; conditions: post-emergence, 336 h; for pest or weed control at 70 g/ha: application rate 70 g ai/ha; for pest or weed control at 140 g/ha: application rate 140 g ai/ha
How it was run: as §1

[3] = ABUTH: velvetleaf (Abutilon theophrasti), read-out: Visual Growth Reduction (%) 14 Days After Application ABUTH
[4] = AMARE: redroot pigweed (Amaranthus retroflexus), read-out: Visual Growth Reduction (%) 14 Days After Application AMARE
[5] = BRSNN: oilseed-rape, canola (Brassica napus), read-out: Visual Growth Reduction (%) 14 Days After Application BRSNN
[6] = CHEAL: lambsquarters (Chenopodium album), read-out: Visual Growth Reduction (%) 14 Days After Application CHEAL
[7] = EPHHL: wild poinsettia (Euphorbia heterophylla), read-out: Visual Growth Reduction (%) 14 Days After Application EPHHL
[8] = HELAN: sunflower (Helianthus annuus), read-out: Visual Growth Reduction (%) 14 Days After Application HELAN
[9] = VIOTR: wild pansy (Viola tricolor), read-out: Visual Growth Reduction (%) 14 Days After Application VIOTR
[10] = CYPES: yellow nutsedge (Cyperus esculentus), read-out: Visual Growth Reduction (%) 14 Days After Application, CYPES
[11] = DIGSA: crabgrass (Digitaria sanguinalis), read-out: Visual Growth Reduction (%) 14 Days After Application, DIGSA
[12] = ECHCG: barnyardgrass (Echinochloa crus-galli), read-out: Visual Growth Reduction (%) 14 Days After Application, ECHCG
[13] = ORYSA: rice (Oryza sativa), read-out: Visual Growth Reduction (%) 14 Days After Application, ORYSA
[14] = SETFA: giant foxtail (Setaria faberi), read-out: Visual Growth Reduction (%) 14 Days After Application, SETFA
[15] = SORVU: grain sorghum (Sorghum vulgare), read-out: Visual Growth Reduction (%) 14 Days After Application, SORVU
[16] = TRZSS (wheat, Triticum aestivum), read-out: Visual Growth Reduction (%) 14 Days After Application, TRZSS
[17] = ZEAMX: maize, corn (Zea mays), read-out: Visual Growth Reduction (%) 14 Days After Application, ZEAMX

COC(=O)c1nc(-c2ccc(C#N)cc2F)c(F)c(N)c1Cl [Compound 44, Methyl 4-amino-3-chloro-6-(4-cyano-2-fluorophenyl)-5-fluoropicolinate]
pest or weed control at 70 g/ha [1, 3]: 30 to 44%
pest or weed control at 140 g/ha [1, 3]: 60 to 74%
pest or weed control at 70 g/ha [1, 4]: 75 to 84%
pest or weed control at 140 g/ha [1, 4]: 95 to 100%
pest or weed control at 70 g/ha [1, 5]: 0 to 29%
pest or weed control at 140 g/ha [1, 5]: 0 to 29%
pest or weed control at 70 g/ha [1, 6]: 75 to 84%
pest or weed control at 140 g/ha [1, 6]: 85 to 94%
pest or weed control at 70 g/ha [1, 7]: 85 to 94%
pest or weed control at 140 g/ha [1, 7]: 95 to 100%
pest or weed control at 70 g/ha [1, 8]: 85 to 94%
pest or weed control at 140 g/ha [1, 8]: 95 to 100%
pest or weed control at 70 g/ha [1, 9]: 0 to 29%
pest or weed control at 140 g/ha [1, 9]: 0 to 29%
pest or weed control at 70 g/ha [2, 10]: 30 to 44%
pest or weed control at 140 g/ha [2, 10]: 45 to 59%
pest or weed control at 70 g/ha [2, 11]: 0 to 29%
pest or weed control at 140 g/ha [2, 11]: 0 to 29%
pest or weed control at 70 g/ha [2, 12]: 0 to 29%
pest or weed control at 140 g/ha [2, 12]: 0 to 29%
pest or weed control at 70 g/ha [2, 13]: 0 to 29%
pest or weed control at 140 g/ha [2, 13]: 0 to 29%
pest or weed control at 70 g/ha [2, 14]: 0 to 29%
pest or weed control at 140 g/ha [2, 14]: 0 to 29%
pest or weed control at 70 g/ha [2, 15]: 0 to 29%
pest or weed control at 140 g/ha [2, 15]: 0 to 29%
pest or weed control at 70 g/ha [2, 16]: 30 to 44%
pest or weed control at 140 g/ha [2, 16]: 30 to 44%
pest or weed control at 70 g/ha [2, 17]: 0 to 29%
pest or weed control at 140 g/ha [2, 17]: 0 to 29%
